The source made the active and inactive calls. The rule behind the calls is not given here.
Key:
BaF3 [1] = test: Antiproliferative activity against mouse Ba/F3 cells harbouring FLT3 ITD D835Y mutant assessed as growth inhibition measured after 72 hrs by CellTiter-Glo assay; assay type: functional
BaF3 [2] = test: Antiproliferative activity against mouse Ba/F3 cells assessed as growth inhibition measured after 72 hrs by CellTiter-Glo assay; assay type: functional
BaF3 [3] = test: Antiproliferative activity against mouse Ba/F3 cells harbouring FLT3 D835Y mutant assessed as growth inhibition measured after 72 hrs by CellTiter-Glo assay; assay type: functional
Focal adhesion kinase 1 = Focal adhesion kinase 1 (Homo sapiens, UniProt Q05397); test: Inhibition of recombinant FAK (unknown origin) by radiometric kinase assay
Chain of Focal adhesion kinase 1 (Q05397 whole entry): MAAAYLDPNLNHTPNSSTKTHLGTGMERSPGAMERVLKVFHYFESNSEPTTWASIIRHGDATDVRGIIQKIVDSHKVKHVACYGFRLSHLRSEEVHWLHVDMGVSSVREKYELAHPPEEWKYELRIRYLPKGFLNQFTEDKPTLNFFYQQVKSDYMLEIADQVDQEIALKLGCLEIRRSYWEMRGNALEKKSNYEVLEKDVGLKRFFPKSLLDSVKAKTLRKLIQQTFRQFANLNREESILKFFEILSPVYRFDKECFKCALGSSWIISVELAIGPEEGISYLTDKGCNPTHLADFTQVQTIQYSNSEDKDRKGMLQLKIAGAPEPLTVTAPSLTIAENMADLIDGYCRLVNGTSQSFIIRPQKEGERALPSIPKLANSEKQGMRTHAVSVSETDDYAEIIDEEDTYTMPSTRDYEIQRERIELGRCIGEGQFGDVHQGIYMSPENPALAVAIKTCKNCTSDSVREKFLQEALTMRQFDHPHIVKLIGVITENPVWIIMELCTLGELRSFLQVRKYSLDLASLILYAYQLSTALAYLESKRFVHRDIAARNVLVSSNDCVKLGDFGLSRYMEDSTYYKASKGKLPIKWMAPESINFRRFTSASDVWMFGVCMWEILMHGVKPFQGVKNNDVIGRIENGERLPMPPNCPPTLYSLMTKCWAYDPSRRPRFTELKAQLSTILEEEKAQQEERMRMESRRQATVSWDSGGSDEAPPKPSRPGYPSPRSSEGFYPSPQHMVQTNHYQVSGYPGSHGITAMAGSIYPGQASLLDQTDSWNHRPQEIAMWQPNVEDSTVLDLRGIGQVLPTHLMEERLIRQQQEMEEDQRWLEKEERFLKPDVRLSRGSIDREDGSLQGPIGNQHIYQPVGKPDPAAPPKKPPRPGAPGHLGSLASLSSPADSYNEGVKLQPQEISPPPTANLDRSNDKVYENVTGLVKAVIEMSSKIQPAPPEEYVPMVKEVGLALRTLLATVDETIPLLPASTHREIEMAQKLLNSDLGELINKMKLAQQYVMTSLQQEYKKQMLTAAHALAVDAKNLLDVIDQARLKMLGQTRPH

[4] = Inhibition of FLT3 D835Y (unknown origin); design: species or system Homo sapiens
[5] = (§1) Antiproliferative activity against human A375P cells assessed as growth inhibition measured after 72 hrs by CellTiter-Glo assay; assay type: functional
HCT-116 = test: Antiproliferative activity against human HCT-116 cells assessed as growth inhibition measured after 72 hrs by CellTiter-Glo assay; assay type: functional
BaF3 [6] = test: Antiproliferative activity against mouse Ba/F3 cells harbouring FLT3 ITD mutant assessed as growth inhibition measured after 72 hrs by CellTiter-Glo assay; assay type: functional
BaF3 [7] = test: Antiproliferative activity against mouse Ba/F3 cells harbouring FLT3 ITD F691I mutant assessed as growth inhibition measured after 72 hrs by CellTiter-Glo assay; assay type: functional
MDA-MB-231 = test: Antiproliferative activity against human MDA-MB-231 cells assessed as growth inhibition measured after 72 hrs by CellTiter-Glo assay; assay type: functional
[8] = Inhibition of FYK Y379 mutant phosphorylation in human MDA-MB-231 cells by in-cell western blot assay; assay type: cell-based
BaF3 [9] = test: Antiproliferative activity against mouse Ba/F3 cells harbouring FLT3 ITD F691L mutant assessed as growth inhibition measured after 72 hrs by CellTiter-Glo assay; assay type: functional
[10] = Metabolic stability in human liver microsomes assessed as compound remaining at 1 uM measured after 1 hr; assay type: ADME, Microsome; details: read-out: Stabilty
A375P = test: as §1; assay type: functional
CYP2C19 = CYP2C19 (Homo sapiens, UniProt P33261); test: Inhibition of CYP2C19 (unknown origin) at 10 uM relative to control; assay type: ADME
Chain of CYP2C19 (P33261 whole entry): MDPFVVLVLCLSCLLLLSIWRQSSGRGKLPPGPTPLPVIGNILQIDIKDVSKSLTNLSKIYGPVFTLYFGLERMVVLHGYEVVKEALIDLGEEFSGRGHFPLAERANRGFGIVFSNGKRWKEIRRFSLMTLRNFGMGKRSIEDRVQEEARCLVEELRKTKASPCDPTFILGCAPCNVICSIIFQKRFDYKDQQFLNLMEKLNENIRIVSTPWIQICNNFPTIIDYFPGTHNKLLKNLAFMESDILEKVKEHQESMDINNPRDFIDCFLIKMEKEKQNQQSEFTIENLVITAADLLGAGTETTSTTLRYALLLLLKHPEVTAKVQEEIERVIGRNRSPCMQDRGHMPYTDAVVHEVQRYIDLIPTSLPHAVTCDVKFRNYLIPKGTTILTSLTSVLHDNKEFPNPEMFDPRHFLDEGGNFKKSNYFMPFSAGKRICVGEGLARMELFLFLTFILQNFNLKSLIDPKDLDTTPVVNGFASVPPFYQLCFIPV

CYP3A4 = CYP3A4 (Homo sapiens, UniProt P08684); test: Inhibition of CYP3A4 (unknown origin) at 10 uM relative to control; assay type: ADME
Chain of CYP3A4 (P08684 whole entry): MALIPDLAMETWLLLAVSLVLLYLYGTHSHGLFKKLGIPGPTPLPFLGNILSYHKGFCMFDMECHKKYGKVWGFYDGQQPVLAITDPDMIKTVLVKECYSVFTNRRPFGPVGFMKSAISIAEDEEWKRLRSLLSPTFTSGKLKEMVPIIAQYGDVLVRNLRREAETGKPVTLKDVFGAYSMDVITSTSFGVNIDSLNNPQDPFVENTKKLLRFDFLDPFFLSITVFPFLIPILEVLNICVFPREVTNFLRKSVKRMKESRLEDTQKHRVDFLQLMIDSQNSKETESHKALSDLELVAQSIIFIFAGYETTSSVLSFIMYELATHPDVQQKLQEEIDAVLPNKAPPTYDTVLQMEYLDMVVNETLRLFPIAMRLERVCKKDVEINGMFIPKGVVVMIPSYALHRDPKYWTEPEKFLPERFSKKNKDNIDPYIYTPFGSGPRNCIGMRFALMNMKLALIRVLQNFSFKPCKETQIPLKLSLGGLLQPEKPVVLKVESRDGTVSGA

CYP2D6 = CYP2D6 (Homo sapiens, UniProt P10635); test: Inhibition of CYP2D6 (unknown origin) at 10 uM relative to control; assay type: ADME
Chain of CYP2D6 (P10635 whole entry): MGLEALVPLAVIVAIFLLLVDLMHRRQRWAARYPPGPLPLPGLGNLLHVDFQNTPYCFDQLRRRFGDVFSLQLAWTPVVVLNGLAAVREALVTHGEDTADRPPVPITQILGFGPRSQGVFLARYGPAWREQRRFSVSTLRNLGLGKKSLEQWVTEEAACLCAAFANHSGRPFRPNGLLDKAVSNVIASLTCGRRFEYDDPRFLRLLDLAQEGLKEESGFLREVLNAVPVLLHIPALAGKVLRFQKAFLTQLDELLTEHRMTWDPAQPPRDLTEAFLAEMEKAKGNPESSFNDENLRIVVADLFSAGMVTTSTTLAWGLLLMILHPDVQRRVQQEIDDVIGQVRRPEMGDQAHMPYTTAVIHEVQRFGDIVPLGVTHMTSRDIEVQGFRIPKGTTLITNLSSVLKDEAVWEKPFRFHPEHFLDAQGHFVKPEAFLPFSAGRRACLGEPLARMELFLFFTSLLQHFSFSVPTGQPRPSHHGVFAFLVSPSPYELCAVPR

CYP2C9 = CYP2C9 (Homo sapiens, UniProt P11712); test: Inhibition of CYP2C9 (unknown origin) at 10 uM relative to control; assay type: ADME
Chain of CYP2C9 (P11712 whole entry): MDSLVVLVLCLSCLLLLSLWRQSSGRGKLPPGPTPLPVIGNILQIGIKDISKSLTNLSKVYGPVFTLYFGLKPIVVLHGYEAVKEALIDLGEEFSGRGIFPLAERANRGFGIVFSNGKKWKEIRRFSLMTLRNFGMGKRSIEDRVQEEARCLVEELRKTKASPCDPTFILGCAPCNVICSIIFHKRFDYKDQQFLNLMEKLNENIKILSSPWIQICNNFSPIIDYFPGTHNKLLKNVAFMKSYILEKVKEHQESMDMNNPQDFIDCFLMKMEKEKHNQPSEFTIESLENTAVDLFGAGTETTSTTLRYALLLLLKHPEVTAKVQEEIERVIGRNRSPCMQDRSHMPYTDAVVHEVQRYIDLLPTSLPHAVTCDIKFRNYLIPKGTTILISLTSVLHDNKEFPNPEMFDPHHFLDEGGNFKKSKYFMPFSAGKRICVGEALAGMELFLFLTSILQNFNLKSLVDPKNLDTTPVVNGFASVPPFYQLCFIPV

CYP1A2 = target: T1, CYP1A2 (Homo sapiens, UniProt P05177); test: Inhibition of CYP1A2 (unknown origin) at 10 uM relative to control; assay type: ADME
T1 sequence (P05177 whole entry): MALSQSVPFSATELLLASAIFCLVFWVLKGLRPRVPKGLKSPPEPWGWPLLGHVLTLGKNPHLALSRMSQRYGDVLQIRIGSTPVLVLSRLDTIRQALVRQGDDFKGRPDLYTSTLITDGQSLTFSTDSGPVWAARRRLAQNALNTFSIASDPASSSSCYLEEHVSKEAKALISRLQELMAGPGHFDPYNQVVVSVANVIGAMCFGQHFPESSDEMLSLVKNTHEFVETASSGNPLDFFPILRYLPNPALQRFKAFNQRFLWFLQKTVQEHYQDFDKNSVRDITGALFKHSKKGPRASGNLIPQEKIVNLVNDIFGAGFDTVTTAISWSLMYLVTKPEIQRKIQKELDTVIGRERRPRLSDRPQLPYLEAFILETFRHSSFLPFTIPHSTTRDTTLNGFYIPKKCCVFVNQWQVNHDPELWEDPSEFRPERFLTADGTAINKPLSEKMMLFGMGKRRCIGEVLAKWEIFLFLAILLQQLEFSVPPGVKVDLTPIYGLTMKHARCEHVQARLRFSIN

| IC50 (Focal adhesion kinase 1) [µM] | IC50 [4] [µM] | remaining at 1 h, 1 µM [10] [%] | GI50 (A375P) | GI50 (HCT-116; Homo sapiens, HCT-116) [µM] | GI50 (MDA-MB-231; Homo sapiens, MDA-MB-231) [µM] | GI50 (BaF3 [1]; Mus musculus, BaF3) [µM] | GI50 (BaF3 [2]; Mus musculus, BaF3) [µM] | GI50 (BaF3 [3]; Mus musculus, BaF3) [µM] | inhibition at 10 µM (CYP2C19) [%] | inhibition at 10 µM (CYP3A4) [%] | inhibition at 10 µM (CYP2D6) [%] | GI50 (BaF3 [6]; Mus musculus, BaF3) [µM] | GI50 (BaF3 [7]; Mus musculus, BaF3) [µM] | GI50 (BaF3 [9]; Mus musculus, BaF3) [µM] | inhibition at 10 µM (CYP2C9) [%] | inhibition at 10 µM (CYP1A2) [%] | SMILES | GI50 ([5]; Homo sapiens, A375P) [µM] | other results |
| --- | --- | --- | --- | --- | --- | --- | --- | --- | --- | --- | --- | --- | --- | --- | --- | --- | --- | --- | --- |
| 1.65 | – | – | inactive | 31.2 | 46.2 | – | – | – | – | – | – | – | – | – | – | – | CCOC(=O)c1ccccc1-c1csc2cnc(Nc3ccc(N4CCN(CC)CC4)cc3)nc12 | – | – |
| – | – | – | inactive | 55.8 | 57.2 | – | – | – | – | – | – | – | – | – | – | – | CS(=O)(=O)Nc1cccc(-c2csc3cnc(NCCO)nc23)c1 | – | – |
| 0.126 | – | – | inactive | 2.06 | 1.38 | – | – | – | – | – | – | – | – | – | – | – | CCN1CCN(c2ccc(Nc3ncc4scc(-c5ccc6ccccc6c5)c4n3)cc2)CC1 | – | – |
| 0.054 | < 0.0005 | 89.3 | – | 0.17 | 0.57 | 0.0323 | 0.647 | 0.0062 | 76.5 | 76 | 89.4 | 0.0208 | 0.142 | 0.0577 | 91.7 | 67.3 | CCN1CCN(c2ccc(Nc3ncc4scc(-c5ccc6cc[nH]c6c5)c4n3)cc2)CC1 | 0.5 | – |
| 0.012 | < 0.0005 | 83.7 | – | 0.24 | 0.28 | 0.0907 | 0.405 | 0.0465 | 79.4 | 72.1 | 86.4 | 1.09 | 0.39 | 0.222 | 89.3 | 35.1 | CCN1CCN(c2ccc(Nc3ncc4scc(-c5cccc(OC)c5)c4n3)cc2)CC1 | 0.51 | – |
| 0.01 | < 0.0005 | 92.6 | – | 1.14 | 0.63 | 0.153 | 0.174 | 0.0022 | 96.5 | 81 | 84.1 | 0.0108 | 0.192 | 0.0675 | 92.1 | 30.9 | CCN1CCN(c2ccc(Nc3ncc4scc(-c5ccccc5)c4n3)cc2)CC1 | 0.4 | – |
| 0.033 | < 0.0005 | 73.4 | – | 0.34 | 0.53 | 0.0232 | 0.371 | 0.0094 | 75.7 | 59.6 | 91.3 | 0.0463 | 0.568 | 0.223 | 74.1 | 67.9 | CCN1CCN(c2ccc(Nc3ncc4scc(-c5cccc(N6CCCS6(=O)=O)c5)c4n3)cc2)CC1 | 0.41 | – |

| SMILES | IC50 (Focal adhesion kinase 1) [µM] | IC50 [4] [µM] | remaining at 1 h, 1 µM [10] [%] | GI50 (A375P) | GI50 (HCT-116; Homo sapiens, HCT-116) [µM] | GI50 (MDA-MB-231; Homo sapiens, MDA-MB-231) [µM] | GI50 (BaF3 [1]; Mus musculus, BaF3) [µM] | GI50 (BaF3 [2]; Mus musculus, BaF3) [µM] | GI50 (BaF3 [3]; Mus musculus, BaF3) [µM] | inhibition at 10 µM (CYP2C19) [%] | inhibition at 10 µM (CYP3A4) [%] | inhibition at 10 µM (CYP2D6) [%] | GI50 (BaF3 [6]; Mus musculus, BaF3) [µM] | GI50 (BaF3 [7]; Mus musculus, BaF3) [µM] | GI50 (BaF3 [9]; Mus musculus, BaF3) [µM] | inhibition at 10 µM (CYP2C9) [%] | inhibition at 10 µM (CYP1A2) [%] | GI50 ([5]; Homo sapiens, A375P) [µM] | other results |
| --- | --- | --- | --- | --- | --- | --- | --- | --- | --- | --- | --- | --- | --- | --- | --- | --- | --- | --- | --- |
| COc1cc(Nc2ncc3scc(-c4cccc(NS(C)(=O)=O)c4)c3n2)cc(OC)c1OC | 0.007 | < 0.0005 | 39.7 | – | – | – | – | – | – | – | – | – | – | – | – | – | – | – | GI50 (BaF3 [1]): 0.0013 µM; GI50 (BaF3 [2]): 0.586 µM; GI50 (BaF3 [3]): 0.0013 µM; GI50 [5]: 0.2 µM; GI50 (HCT-116): 0.43 µM; GI50 (BaF3 [6]): 0.0031 µM; GI50 (BaF3 [7]): 0.325 µM; GI50 (MDA-MB-231): 0.41 µM; IC50 [8]: 0.26 µM; GI50 (BaF3 [9]): 0.0253 µM |
| CS(=O)(=O)Nc1cccc(-c2csc3cnc(Nc4ccc(N5CCOCC5)cc4)nc23)c1 | 0.008 | < 0.0005 | 79.5 | – | – | – | – | – | – | – | – | – | – | – | – | – | – | – | GI50 (BaF3 [1]): 0.0103 µM; GI50 (BaF3 [2]): 0.51 µM; GI50 (BaF3 [3]): 0.0017 µM; GI50 [5]: 1.57 µM; GI50 (HCT-116): 0.41 µM; GI50 (BaF3 [6]): 0.0095 µM; GI50 (BaF3 [7]): 0.365 µM; GI50 (MDA-MB-231): 0.4 µM; IC50 [8]: 0.26 µM; GI50 (BaF3 [9]): 0.104 µM |

Source: ChEMBL document CHEMBL4837239, “Identification of Thieno[3,2-d]pyrimidine Derivatives as Dual Inhibitors of Focal Adhesion Kinase and FMS-like Tyrosine Kinase 3” (J Med Chem, 2021)
